Assays:
[1] = system: Staphylococcus epidermidis; experiment: Broth dilution test (MIC, MBC); type: cell-based; conditions: S. epidermidis; for MIC: broth dilution 1–2048 μg/mL
Experimental: (§1) The antimicrobial activity of complex compounds was assessed against Bacillus subtilis, Escherichia coli, Enterococcus faecalis, Pseudomonas aeruginosa, Staphylococcus aureus, Staphylococcus epidermidis (all strains were from the collection of the Department of Molecular Biology, University of Gdańsk). All bacteria were cultured in the Luria-Bertani (LB) broth at 310.15 K in the air with shaking. LB agar plates were prepared by the supplementation of LB broth with the 1.5 % bacteriological agar. Stock solutions of complex compounds were freshly prepared in the LB broth at the concentration of 25 mg/mL. The antimicrobial activity was assessed with the broth dilution method. The LB broth supplemented with the twofold diluted amount of tested compounds (dilution range 1–2048 μg/mL) was inoculated with 10^6 cfu of bacteria cells per well of 96-well plate. Cultures were incubated at 310.15 K with shaking for 18–20 h in the air, and the bacterial growth was estimated by measuring the optical density at 600 nm with the LB broth as a background control. A minimum inhibitory concentration (MIC) was defined as the lowest concentration of the tested compound (in μg/mL) at which there was no visible growth of bacteria compared to the growth observed for the inoculated LB broth without any supplementation. […] The concentration (in μg/mL) at which no colonies were observed was defined as MBC.

[2] = system: Pseudomonas aeruginosa; experiment: Broth dilution test (MIC, MBC); type: cell-based; conditions: P. aeruginosa, broth dilution 1–2048 μg/mL
Experimental: as §1

[3] = system: Staphylococcus aureus; experiment: Disc diffusion test; type: cell-based; conditions: S. aureus
Experimental: (§2) The antimicrobial activity of complex compounds was assessed against Bacillus subtilis, Escherichia coli, Enterococcus faecalis, Pseudomonas aeruginosa, Staphylococcus aureus, Staphylococcus epidermidis (all strains were from the collection of the Department of Molecular Biology, University of Gdańsk). All bacteria were cultured in the Luria-Bertani (LB) broth at 310.15 K in the air with shaking. LB agar plates were prepared by the supplementation of LB broth with the 1.5 % bacteriological agar. Stock solutions of complex compounds were freshly prepared in the LB broth at the concentration of 25 mg/mL. Aliquots of 0.05 mL of bacterial culture at the optical density at 600 nm of 0.1 (inoculum 5 × 10^6 cells per plate) were spread on LB agar plates. Sterile filter paper discs (of 6 mm diameter) were impregnated with solutions of complex compounds prepared in the deionized water at the following amounts: 0.1, 0.2, 0.5 and 1.0 mg per disc and placed on agar plates. After an overnight incubation at 310.15 K, zones of bacterial growth inhibition were measured. Neomycin at the amount of 0.1 mg/disc was used as a control.

[4] = Conductometric titration: limiting molar conductance and association constants; type: physicochemical; conditions: 298.15 K
Experimental: Conductometric measurements were accomplished on the Cerko Lab System microtitration unit fitted with a 5-mL Hamilton’s syringe, a CD-201 conductometric cell with the constant k = 0.096 cm^−1 (HYDROMET) and a self-made measuring cell equipped with a magnetic stirrer. The conductometric electrode was standardized with conductivity standards (aqueous KCl solutions) of conductivity 84 and 200 μS/cm, purchased from Hamilton Company. The measurements were carried out at 298.15 ± 0.10 K controlled by the Lauda E100 circulation thermostat. The titrant (5 mM [Co(ODA)(H2O)] or [Ni(ODA)(H2O)3]) was added to the titrand (0–50 % v/v DMSO-H2O) both at the same mole fraction of organic solvent, in increments of 0.01 mL, with a pause of 60 s. Each titration was repeated at least three times in order to check the reproducibility of the data. The limiting molar conductance values (Λo) and the association constants (logK ass) for the nickel(II) and cobalt(II) complexes were computed using the Shedlovsky’s and Pitt’s method. The physicochemical parameters of the binary solvents used in the calculations were taken from the literature. They are collected in Table 1.
The limiting molar conductance values (Λo) and the association constants (logK ass) for the nickel(II) and cobalt(II) complexes were computed using Shedlovsky’s and Pitt’s equations and are consequently collected in Table 4.

[5] = system: Enterococcus faecalis; experiment: Disc diffusion test; type: cell-based; conditions: E. faecalis
Experimental: as §2

[6] = system: Staphylococcus epidermidis; experiment: Disc diffusion test; type: cell-based; conditions: S. epidermidis
Experimental: as §2

[7] = system: Escherichia coli; experiment: Disc diffusion test; type: cell-based; conditions: E. coli
Experimental: as §2

[8] = system: Pseudomonas aeruginosa; experiment: Disc diffusion test; type: cell-based; conditions: P. aeruginosa
Experimental: as §2

[9] = Pitts method, DMSO-water 0 % v/v
[10] = Pitts method, DMSO-water 10 % v/v
[11] = Pitts method, DMSO-water 20 % v/v
[12] = Pitts method, DMSO-water 30 % v/v
[13] = Pitts method, DMSO-water 40 % v/v
[14] = Pitts method, DMSO-water 50 % v/v
[15] = Shedlovsky method, DMSO-water 0 % v/v
[16] = Shedlovsky method, DMSO-water 10 % v/v
[17] = Shedlovsky method, DMSO-water 20 % v/v
[18] = Shedlovsky method, DMSO-water 30 % v/v
[19] = Shedlovsky method, DMSO-water 40 % v/v
[20] = Shedlovsky method, DMSO-water 50 % v/v

| SMILES | MBC [1] [µg/mL] | bacteriostatic or bactericidal activity [1] | MIC [1] [µg/mL] | MIC [2] [µg/mL] | Zone of growth inhibition ([3]; 500 μg/disc) [mm] | Zone of growth inhibition ([3]; 1000 μg/disc) [mm] | association constant logK ass [4, 9] | limiting molar conductance Λo [4, 9] | association constant logK ass [4, 10] | limiting molar conductance Λo [4, 10] | association constant logK ass [4, 11] | limiting molar conductance Λo [4, 11] | association constant logK ass [4, 12] | limiting molar conductance Λo [4, 12] | association constant logK ass [4, 13] | limiting molar conductance Λo [4, 13] | association constant logK ass [4, 14] | limiting molar conductance Λo [4, 14] | association constant logK ass [4, 15] | limiting molar conductance Λo [4, 15] | also measured |
| --- | --- | --- | --- | --- | --- | --- | --- | --- | --- | --- | --- | --- | --- | --- | --- | --- | --- | --- | --- | --- | --- |
| O.O.O.O.O.O.O.O.O.O=C([O-])COCC(=O)[O-].O=C([O-])COCC(=O)[O-].[Ni+2].[Ni+2] [Ni(ODA), [Ni(ODA)(H2O)3]·1.5H2O] | 2048 | bactericidal activity | 512 | 1024 | 7 | 8 | 3.34 (±0.01) | 216.74(±1.08) S cm^2 mol^−1 | 3.48 (±0.01) | 161.75(±0.93) S cm^2 mol^−1 | 3.56 (±0.01) | 114.72(±1.55) S cm^2 mol^−1 | 3.75 (±0.01) | 91.35(±1.33) S cm^2 mol^−1 | 4.05 (±0.01) | 52.00(±0.50) S cm^2 mol^−1 | 4.17 (±0.04) | 29.49(±0.92) S cm^2 mol^−1 | 3.33 (±0.01) | 216.10(±0.74) S cm^2 mol^−1 | association constant logK ass [4, 16]: 3.47 (±0.01); limiting molar conductance Λo [4, 16]: 161.00(±0.95) S cm^2 mol^−1; association constant logK ass [4, 17]: 3.59 (±0.01); limiting molar conductance Λo [4, 17]: 119.83(±0.83) S cm^2 mol^−1; association constant logK ass [4, 18]: 3.74 (±0.01); limiting molar conductance Λo [4, 18]: 90.63(±1.37) S cm^2 mol^−1; association constant logK ass [4, 19]: 4.05 (±0.02); limiting molar conductance Λo [4, 19]: 51.85(±0.61) S cm^2 mol^−1; association constant logK ass [4, 20]: 4.15 (±0.03); limiting molar conductance Λo [4, 20]: 28.80(±0.48) S cm^2 mol^−1 |
| O.O.O=C([O-])COCC(=O)[O-].[O]=[V+2] [VO(ODA), [VO(ODA)(H2O)2]] | 2048 | bactericidal activity | 2048 | 1024 |  |  |  |  |  |  |  |  |  |  |  |  |  |  |  |  | Zone of growth inhibition ([5]; 500 μg/disc): 9 mm; Zone of growth inhibition ([5]; 1000 μg/disc): 13 mm; Zone of growth inhibition ([6]; 1000 μg/disc): 12 mm |
| O.O.O.O=C(O)COCC(=O)O.[Co] [Co(ODA), [Co(ODA)(H2O)2]·H2O] | 2048 | bactericidal activity | 256 | 256 | 12 | 17 | 3.38 (±0.01) | 226.58(±1.32) S cm^2 mol^−1 | 3.51 (±0.01) | 173.97(±0.60) S cm^2 mol^−1 | 3.77 (±0.01) | 134.29(±1.09) S cm^2 mol^−1 | 3.89 (±0.01) | 92.53(±0.96) S cm^2 mol^−1 | 4.05 (±0.01) | 57.02(±0.71) S cm^2 mol^−1 | 4.32 (±0.03) | 29.74(±1.46) S cm^2 mol^−1 | 3.35 (±0.01) | 223.49(±1.45) S cm^2 mol^−1 | Zone of growth inhibition ([7]; 500 μg/disc): 12 mm; Zone of growth inhibition ([7]; 1000 μg/disc): 14 mm; Zone of growth inhibition ([5]; 500 μg/disc): 10 mm; Zone of growth inhibition ([5]; 1000 μg/disc): 15 mm; Zone of growth inhibition ([6]; 100 μg/disc): 8 mm; Zone of growth inhibition ([6]; 500 μg/disc): 19 mm; Zone of growth inhibition ([6]; 1000 μg/disc): 23 mm; Zone of growth inhibition ([3]; 100 μg/disc): 7 mm; Zone of growth inhibition ([8]; 500 μg/disc): 14 mm; Zone of growth inhibition ([8]; 1000 μg/disc): 18 mm; association constant logK ass [4, 16]: 3.49 (±0.01); limiting molar conductance Λo [4, 16]: 171.55(±0.74) S cm^2 mol^−1; association constant logK ass [4, 17]: 3.77 (±0.01); limiting molar conductance Λo [4, 17]: 133.47(±1.00) S cm^2 mol^−1; association constant logK ass [4, 18]: 3.89 (±0.01); limiting molar conductance Λo [4, 18]: 92.16(±1.07) S cm^2 mol^−1; association constant logK ass [4, 19]: 4.09 (±0.03); limiting molar conductance Λo [4, 19]: 55.24(±0.84) S cm^2 mol^−1; association constant logK ass [4, 20]: 4.22 (±0.02); limiting molar conductance Λo [4, 20]: 28.52(±1.58) S cm^2 mol^−1 |

— PMC4352194, “Physicochemical and Biological Properties of Oxovanadium(IV), Cobalt(II) and Nickel(II) Complexes with Oxydiacetate Anions” (Biological Trace Element Research, 2014)
